# Data as given in patent US20110039885A1, “METHODS FOR INCREASING ENDOTHELIAL PROGENITOR CELLS” (FibroGen, Inc., priority 2007, published 2011).
# Key:
# Format in all cases: in vivo, mouse
# [1] = test system: colony-forming unit-endothelial cells (CFU-EC) from bone marrow; test: EPC colony forming assay (CFU-EC) ex vivo, bone marrow of dosed mice; conditions: for Bone Marrow CFU-EC: tibia bone marrow 6 h after final dose, 12 days culture; for Bone Marrow CFU-EC Fold Increase Over Control: vs vehicle control
# Method: EPC colony forming assays were carried out as previously described. (Murphy et al. (2007) Arterioscler Thromb Vasc Biol 27:936-942.) Briefly, mononuclear cells were isolated from whole blood samples by erythrocyte depletion using red blood cell lysis buffer (eBioscience) according to the manufacturer's instructions. The remaining cells (50,000 cells/well) were plated on fibronectin coated 24-well dishes (BD, BioSciences Discovery Labware) and incubated in endothelial growth media (EGM-2 media, Cambrex) for 12 days. At the end the incubation period, EPC colonies were counted. In another series of experiments, male Swiss-Webster mice were administered various compounds of the present invention via oral gavage using a ball-tipped gavage needle. Animals treated by oral gavage received a 10 ml/kg volume of either 0.5% carboxymethyl cellulose (CMC) with 0.1% Polysorbate 80 (vehicle control) or various doses (10-100 mg/kg) of a compound of the present invention in 0.5% CMC with 0.1% Polysorbate 80. Animals were dosed once daily for 3 or 4 days. Six hours after the final dosing, bone marrow samples were taken from one tibia of each animal. Bone marrow samples were then analyzed for EPC function and differentiation using an EPC colony forming assay as described above.
# [2] = test system: endothelial progenitor cells (EPCs), KDR+/CD34+ cells, in bone marrow; test: Bone marrow EPC levels by FACS after oral dosing in mice; conditions: for Percent Bone Marrow EPCs: tibia bone marrow 6 h after final dose; for Percent Bone Marrow EPCs Fold Increase Over Control: vs vehicle control
# Method: (§1) To examine the effect of compounds and methods of the present invention on endothelial progenitor cell (EPC) mobilization and EPC levels, the following studies were performed. Male Swiss-Webster mice were administered various compounds of the present invention via oral gavage using a ball-tipped gavage needle. Animals treated by oral gavage received a 10 ml/kg volume of either 0.5% carboxymethyl cellulose (CMC) with 0.1% Polysorbate 80 (vehicle control) or various doses (10-100 mg/kg) of a compound of the present invention in 0.5% CMC with 0.1% Polysorbate 80. Animals were dosed once daily for 3 or 4 days. Six hours after the final dosing, 200 μl blood samples were collected for detection of EPCs by FACS analysis as previously described. (Vasa et al. (2001) Circ Res 89:e1-e7.) Briefly, mononuclear cells were isolated from whole blood samples by erythrocyte depletion using red blood cell lysis buffer (eBioscience) according to the manufacturer's instructions. The remaining cells were incubated for one hour with monoclonal antibodies directed against mouse CD34 and mouse KDR, cell surface markers for EPCs (BD Pharmingen). Following incubation with the anti-CD34 and anti-KDR monoclonal antibodies, the samples were washed three times with sort buffer (PBS, 1% fetal bovine serum) and resuspended in sort buffer containing 50 μg/ml of propidium iodide. Samples were then analyzed for the presence and quantitation of EPCs by flow cytometry (FACS Calibur, Becton Dickinson). The cytometer was set to acquire 10 000 events. Two or three samples obtained from each animal were analyzed and the average recorded. EPCs were determined as double positive KDR+/CD34+ cells.
# To examine the effect of compounds and methods of the present invention on EPC levels in bone marrow, the following studies were performed. Male Swiss-Webster mice were administered various compounds of the present invention via oral gavage using a ball-tipped gavage needle. Animals treated by oral gavage received a 10 ml/kg volume of either 0.5% carboxymethyl cellulose (CMC) with 0.1% Polysorbate 80 (vehicle control) or various doses (10-100 mg/kg) of a compound of the present invention in 0.5% CMC with 0.1% Polysorbate 80. Animals were dosed once daily for 3 or 4 days. Six hours after the final dosing, bone marrow samples were taken from one tibia of each animal and suspended in buffer (PBS with 1% fetal bovine serum). Bone marrow suspensions were then filtered through nylon filters to remove stromal cells. Following filtration, the remaining cells were counted manually using a hemocytometer. Detection and quantitation of EPCs was performed by FACS analysis as described above in Example 1.
# [3] = test system: endothelial progenitor cells (EPCs), double positive KDR+/CD34+ cells, in blood; test: Blood EPC levels by FACS after oral dosing in mice; conditions: for Blood EPCs / Percent Blood EPCs: blood 6 h after final dose; for Blood EPCs Fold Increase Over Control / Percent Blood EPCs Fold Increase Over Control: vs vehicle control
# Method: as §1
# [4] = test system: colony-forming unit-endothelial cells (CFU-EC) from blood; test: EPC colony forming assay (CFU-EC) ex vivo, blood of dosed mice; conditions: for Blood CFU-EC: blood 6 h after final dose, 12 days culture; for Blood CFU-EC Fold Increase Over Control: vs vehicle control
# Method: To examine the effect of compounds and methods of the present invention on increasing EPCs, wherein the EPCs are functional EPCs, i.e., EPCs that are able to differentiate into mature endothelial cells, the following studies were performed in which the frequency of endothelial colony-forming cells was evaluated ex vivo. In one series of experiments, male Swiss-Webster mice were administered various compounds of the present invention via oral gavage using a ball-tipped gavage needle. Animals treated by oral gavage received a 10 ml/kg volume of either 0.5% carboxymethyl cellulose (CMC) with 0.1% Polysorbate 80 (vehicle control) or various doses (10-100 mg/kg) of a compound of the present invention in 0.5% CMC with 0.1% Polysorbate 80. Animals were dosed once daily for 3 or 4 days. Six hours after the final dosing, 200 μl blood samples were collected for analysis of EPC function and differentiation using an EPC colony forming assay. EPC colony forming assays were carried out as previously described. (Murphy et al. (2007) Arterioscler Thromb Vasc Biol 27:936-942.) Briefly, mononuclear cells were isolated from whole blood samples by erythrocyte depletion using red blood cell lysis buffer (eBioscience) according to the manufacturer's instructions. The remaining cells (50,000 cells/well) were plated on fibronectin coated 24-well dishes (BD, BioSciences Discovery Labware) and incubated in endothelial growth media (EGM-2 media, Cambrex) for 12 days. At the end the incubation period, EPC colonies were counted.
# [5] = 20 mg/kg oral gavage once daily, 3 days
# [6] = 20 mg/kg oral gavage once daily, 4 days
# [7] = 60 mg/kg oral gavage once daily, 3 days
# [8] = 60 mg/kg oral gavage once daily, 4 days
smiles,measurement,setting,value
"Cc1cccc(C)c1Oc1ccc2c(C#N)nc(C(=O)NCC(=O)O)c(O)c2c1 [Compound C, {[1-Cyano-6-(2,6-dimethyl-phenoxy)-4-hydroxy-isoquinoline-3-carbonyl]-amino}-acetic acid]",Bone Marrow CFU-EC,[1]; [5],"25.7 colonies/50,000 cells"
same,Bone Marrow CFU-EC,[1]; [6],"26.0 colonies/50,000 cells"
same,Bone Marrow CFU-EC Fold Increase Over Control,"[1]; 20 mg/kg oral, 3 days",5.1 fold
same,Bone Marrow CFU-EC Fold Increase Over Control,"[1]; 20 mg/kg oral, 4 days",1.9 fold
same,Bone Marrow CFU-EC,[1]; [7],"28.0 colonies/50,000 cells"
same,Bone Marrow CFU-EC,[1]; [8],"61.0 colonies/50,000 cells"
same,Bone Marrow CFU-EC Fold Increase Over Control,"[1]; 60 mg/kg oral, 3 days",5.6 fold
same,Bone Marrow CFU-EC Fold Increase Over Control,"[1]; 60 mg/kg oral, 4 days",4.5 fold
same,Percent Bone Marrow EPCs,[2]; [5],2.2 % gated cells
same,Percent Bone Marrow EPCs,[2]; [6],0.6 % gated cells
same,Percent Bone Marrow EPCs Fold Increase Over Control,"[2]; 20 mg/kg oral, 3 days",2.2 fold
same,Percent Bone Marrow EPCs Fold Increase Over Control,"[2]; 20 mg/kg oral, 4 days",0.9 fold
same,Percent Bone Marrow EPCs,[2]; [7],3.2 % gated cells
same,Percent Bone Marrow EPCs,[2]; [8],0.9 % gated cells
same,Percent Bone Marrow EPCs Fold Increase Over Control,"[2]; 60 mg/kg oral, 3 days",3.2 fold
same,Percent Bone Marrow EPCs Fold Increase Over Control,"[2]; 60 mg/kg oral, 4 days",1.4 fold
same,Blood EPCs,[3]; [5],151.9 cells/μl
same,Percent Blood EPCs,[3]; [5],1.3 % gated cells
same,Blood EPCs,[3]; [6],125.9 cells/μl
same,Percent Blood EPCs,[3]; [6],0.7 % gated cells
same,Blood EPCs Fold Increase Over Control,"[3]; 20 mg/kg oral, 3 days",4.2 fold
same,Percent Blood EPCs Fold Increase Over Control,"[3]; 20 mg/kg oral, 3 days",1.8 fold
same,Blood EPCs Fold Increase Over Control,"[3]; 20 mg/kg oral, 4 days",2.5 fold
same,Percent Blood EPCs Fold Increase Over Control,"[3]; 20 mg/kg oral, 4 days",1.0 fold
same,Blood EPCs,[3]; [7],195.1 cells/μl
same,Percent Blood EPCs,[3]; [7],1.4 % gated cells
same,Blood EPCs,[3]; [8],240.0 cells/μl
same,Percent Blood EPCs,[3]; [8],1.0 % gated cells
same,Blood EPCs Fold Increase Over Control,"[3]; 60 mg/kg oral, 3 days",5.4 fold
same,Percent Blood EPCs Fold Increase Over Control,"[3]; 60 mg/kg oral, 3 days",1.9 fold
same,Blood EPCs Fold Increase Over Control,"[3]; 60 mg/kg oral, 4 days",4.7 fold
same,Percent Blood EPCs Fold Increase Over Control,"[3]; 60 mg/kg oral, 4 days",1.3 fold
same,Blood CFU-EC,[4]; [5],"7.7 colonies/50,000 cells"
same,Blood CFU-EC,[4]; [6],"5.6 colonies/50,000 cells"
same,Blood CFU-EC Fold Increase Over Control,"[4]; 20 mg/kg oral, 3 days",4.3 fold
same,Blood CFU-EC Fold Increase Over Control,"[4]; 20 mg/kg oral, 4 days",4.3 fold
same,Blood CFU-EC,[4]; [7],"7.4 colonies/50,000 cells"
same,Blood CFU-EC,[4]; [8],"6.6 colonies/50,000 cells"
same,Blood CFU-EC Fold Increase Over Control,"[4]; 60 mg/kg oral, 3 days",4.14 fold
same,Blood CFU-EC Fold Increase Over Control,"[4]; 60 mg/kg oral, 4 days",5.1 fold
